In the assay the target is T1, IGF-1R (Homo sapiens, UniProt P08069).
T1 construct: purchased Upstate Co. 14-465
Description: IGF-1R inhibitory activity (kinase reaction, time-resolved fluoroimmunoassay). In kind it is biochemical. The note with it: IGF-1R active recombinant enzyme, test compound 10 μmol/L. On the procedure:
The IGF-1R inhibitory activity was measured in the following manner.
As IGF-1R, active recombinant enzyme (Catalog No. 14-465) purchased from Upstate Co., was used. To 96 well plate (FIA-PLATE BLACK 96 well FALT-BOTTOM HIGH BINDING, Greiner Bio-one, Catalog No. 655077) coated with NeutroAvidin (Pierce, Catalog No. 31000), biotinylated polyglutamic acid-tyrosine peptide (Nihon Schering K.K., Catalog No. 61GT0BAA) was immobilized and then blocked with 0.25% gelatin to be used as a plate for measuring the kinase reaction. Separately was prepared a solution containing at final concentrations, IGF-1R (200 μg/L), Tris.HCl(pH 7.5)(20 mmol/L), Na3VO4(0.1 mmol/L), MgCl2(1 mmol/L), MnCl2(10 mmol/L), ATP(10 mmol/L), 2-mercaptoethanol (0.04%), BSA(Bovine Serum Albumin) (0.1%), DMSO(0.1%), test compound (10 μmol/L). The solution (each 50 μL) was added to the well of the plate for measuring the kinase reaction and then, enzyme reaction was performed for 30 minutes at 24° C. The plate was washed with TBS-T [10 mmol/L Tris Cl (pH 7.5), 150 mmol/L NaCl, 0.05% Tween 20 (Bio-Rad, Catalog No. 170-6531)] 4 times, then reacted with europium-labeled anti-phosphotyrosine antibody, further washed with TBS-T 4 times and then, measured with time-resolved fluoroimmunoassay (excitation wavelength 340 nm, measuring wavelength 615 nm). The value of a well to which the test compound had not been added was considered as 100% and that of a well where the enzyme and the test compound had not been added was considered as 0%. The relative activity (%) of the well which was added with enzyme and the test compound was measured and by subtracting the calculated value from 100, IGF-1R inhibitory activity of the test compound (%) was determined.

Counter-ions that a name gives are not always drawn.

Results on 36 compounds are retold here after patent US7605272B2, “IGF-1R inhibitor” (Kyowa Hakko Kirin Co., Ltd., priority 2005, dated 2009).

T1 sequence (P08069 959-1367 limits assumed): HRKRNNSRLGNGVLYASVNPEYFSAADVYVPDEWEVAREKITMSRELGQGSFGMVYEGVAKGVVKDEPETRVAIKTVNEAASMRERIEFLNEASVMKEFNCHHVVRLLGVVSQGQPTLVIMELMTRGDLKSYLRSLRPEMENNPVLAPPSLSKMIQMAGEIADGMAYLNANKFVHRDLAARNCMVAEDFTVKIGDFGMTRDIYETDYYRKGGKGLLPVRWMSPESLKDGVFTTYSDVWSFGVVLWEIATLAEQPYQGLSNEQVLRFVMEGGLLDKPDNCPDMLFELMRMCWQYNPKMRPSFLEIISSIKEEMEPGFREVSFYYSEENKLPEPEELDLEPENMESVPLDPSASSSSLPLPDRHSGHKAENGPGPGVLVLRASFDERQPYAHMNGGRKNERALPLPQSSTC

With `C(=Cc1n[nH]c2ccccc12)c1ccccc1Nc1cnccn1` [Compound 155, N-{2-[2-(1H-indazol-3-yl)vinyl]phenyl}-2-pyrazylamine], the “inhibitory activity (%) at 10 μmol/L” value is recorded as 97.9%.
The inhibition is the drop in the measured response relative to a control, in per cent. As to `Cc1cc(C(=O)Nc2ccccc2/C=C/c2n[nH]c3ccccc23)ccc1[N+](=O)[O-]` [Compound 157, (E)-N-{2-[2-(1H-indazol-3-yl)vinyl]phenyl}-3-methyl-4-nitrobenzamide], the inhibition at 10 µM came out at 96%.
The same measure, in the same setting: the same measure for `Cc1ccsc1/C=N/c1ccccc1C=Cc1n[nH]c2ccccc12` [Compound 160, (E)-N-{2-[2-(1H-indazol-3-yl)vinyl]phenyl}(3-methylthiophen-2-ylmethylene)amine]: 98.4%.
Still for that read-out and setting: the result for `C(=C\c1n[nH]c2ccccc12)/c1ccccc1-n1cccc1` [Compound 162, (E)-3-{2-[2-(pyrrol-1-yl)phenyl]vinyl}-1H-indazole] reads 102%; that for `C(=C\c1n[nH]c2ccccc12)/c1ccccc1Nc1ncccn1` [Compound 163, (E)-N-{2-[2-(1H-indazol-3-yl)vinyl]phenyl}-2-pyrimidylamine], 100%; that for `C(=C\c1n[nH]c2ccccc12)/c1ccccc1Nc1ccccn1` [Compound 164, (E)-N-{2-[2-(1H-indazol-3-yl)vinyl]phenyl}-2-pyridylamine], 99.1%.
For `CCOC(=O)c1cnc(Nc2ccccc2/C=C/c2n[nH]c3ccccc23)s1` [Compound 165, (E)-2-{2-[2-(1H-indazol-3-yl)vinyl]phenylamino}thiazole-5-carboxylic acid ethylester], the inhibition at 10 µM was determined as 93.8%.
Still for that read-out and setting: the result for `O=Cc1ccn(-c2ccccc2/C=C/c2n[nH]c3ccccc23)c1` [Compound 167, (E)-1-{2-[2-(1H-indazol-3-yl)vinyl]phenyl}-1H-pyrrole-3-carbaldehyde] reads 94.1%; that for `CCOC(=O)c1csc(Nc2ccccc2/C=C/c2n[nH]c3ccccc23)n1` [Compound 169, (E)-2-{2-[2-(1H-indazol-3-yl)vinyl]phenylamino}thiazole-4-carboxylic acid ethyl ester], 88.4%.
Still for that read-out and setting: the same measure for `O=C(O)c1csc(Nc2ccccc2/C=C/c2n[nH]c3ccccc23)n1` [Compound 170, (E)-2-{2-[2-(1H-indazol-3-yl)vinyl]phenylamino}thiazole-4-carboxylic acid]: 69.8%; for `O=C(c1cnc(Nc2ccccc2/C=C/c2n[nH]c3ccccc23)s1)N1CCC(O)CC1` [Compound 171, (E)-4-hydroxy-1-{2-[2-(2-(1H-indazol-3-yl)vinyl)phenylamino]thiazole-5-ylcarbonyl}piperidine]: 87.2%.
As for `OCc1csc(Nc2ccccc2/C=C/c2n[nH]c3ccccc23)n1` [Compound 173, (E)-2-{2-[2-(1H-indazol-3-yl)vinyl]phenylamino}thiazole-4-methanol], the inhibition at 10 µM amounted to 97.8%.
Same read-out and setting: the same measure for `CN(C)C(=O)c1nc(-c2ccccc2/C=C/c2n[nH]c3ccccc23)no1` [Compound 176, (E)-N,N-dimethyl-3-{2-[2-(1H-indazol-3-yl)vinyl]phenyl}[1,2,4]oxadiazole-5-carboxamide]: 100%; for `CNC(=O)c1nc(-c2ccccc2/C=C/c2n[nH]c3ccccc23)no1` [Compound 177, (E)-3-{2-[2-(1H-indazol-3-yl)vinyl]phenyl}-N-methyl[1,2,4]oxadiazole-5-carboxamide]: 99.4%.
On to `O=c1[nH]c(-c2ccccc2/C=C/c2n[nH]c3ccccc23)no1` [Compound 178, (E)-3-{2-[2-(1H-indazol-3-yl)vinyl]phenyl}-4H-[1,2,4]oxadiazole-5-one], for which the inhibition at 10 µM is 71.1%.
As for `OCc1nc(-c2ccccc2/C=C/c2n[nH]c3ccccc23)no1` [Compound 179, (E)-3-{2-[2-(1H-indazol-3-yl)vinyl]phenyl}[1,2,4]oxadiazol-5-ylmethanol], the inhibition at 10 µM amounted to 99.6%.
Still for that read-out and setting: the result for `OCCCc1nc(-c2ccccc2/C=C/c2n[nH]c3ccccc23)no1` [Compound 180, (E)-3-(3-{2-[2-(1H-indazol-3-yl)vinyl]phenyl}[1,2,4]oxadiazol-5-yl)propan-1-ol] reads 98.1%.
The same measure, in the same setting: the same measure for `OCCc1nc(-c2ccccc2/C=C/c2n[nH]c3ccccc23)no1` [Compound 181, (E)-2-{3-{2-[2-(1H-indazol-3-yl)vinyl]phenyl}[1,2,4]oxadiazol-5-yl}ethanol]: 98.9%; for `C(=C\c1n[nH]c2ccccc12)/c1ccccc1-n1ccc(CN2CCOCC2)c1` [Compound 182, (E)-3-{2-[2-(3-morpholin-4-ylmethylpyrrol-1-yl)phenyl]vinyl}-1H-indazole]: 97.9%.
Still for that read-out and setting: the result for `C(=C\c1n[nH]c2ccccc12)/c1ccccc1-c1nc2ccccc2o1` [Compound 183, (E)-2-{2-[2-(1H-indazol-3-yl)vinyl]phenyl}benzoxazole] reads 59.1%; that for `Nc1ccc2oc(-c3ccccc3/C=C/c3n[nH]c4ccccc34)nc2c1` [Compound 185, (E)-2-{2-[2-(1H-indazol-3-yl)vinyl]phenyl}benzoxazol-5-ylamine], 93.2%.
Consider `CN(C)CCNCc1ccn(-c2ccccc2/C=C/c2n[nH]c3ccccc23)c1` [Compound 186, (E)-N′-(1-{2-[2-(1H-indazol-3-yl)vinyl]phenyl}-1H-pyrrol-3-ylmethyl)-N,N-dimethylethane-1,2-diamine], for which the inhibition at 10 µM turned out to be 102%.
`OCCNCc1ccn(-c2ccccc2/C=C/c2n[nH]c3ccccc23)c1` [Compound 187, (E)-2-(1-{2-[2-(1H-indazol-3-yl)vinyl]phenyl}-1H-pyrrol-3-ylmethylamino)ethanol]: the inhibition at 10 µM was 98.2%.
The same measure, in the same setting: the same measure for `CN(C)CCN(C)Cc1ccn(-c2ccccc2/C=C/c2n[nH]c3ccccc23)c1` [Compound 188, (E)-N-(1-{2-[2-(1H-indazol-3-yl)vinyl]phenyl}-1H-pyrrol-3-ylmethyl)-N,N′,N′-trimethylethane-1,2-diamine]: 99.4%; for `C(=C\c1n[nH]c2ccccc12)/c1ccccc1-n1ccc(CNCC2CC2)c1` [Compound 189, (E)-3-cyclopropylmethylaminomethyl-1-{2-[2-(1H-indazol-3-yl)vinyl]phenyl}pyrrole]: 102%.
For the compound `Cc1ccc(C)n1-c1ccccc1/C=C/c1n[nH]c2ccccc12` [Compound 190], the “inhibitory activity (%) at 10 μmol/L” value was 96.9%.
On to `Cc1cc(CO)c(C)n1-c1ccccc1/C=C/c1n[nH]c2ccccc12` [Compound 191, (E)-1-{2-[2-(1H-indazol-3-yl)vinyl]phenyl}-2,5-dimethyl-1H-pyrrol-3-ylmethanol], for which the inhibition at 10 µM was determined as 102%.
The same measure, in the same setting: the result for `O=C1c2ccc([N+](=O)[O-])cc2C(=O)N1c1ccccc1/C=C/c1n[nH]c2ccccc12` [Compound 192, (E)-2-{2-[2-(1H-indazol-3-yl)vinyl]phenyl}-5-nitroisoindole-1,3-dione] reads 92.3%.
As for `O=C1c2ccc(Cl)cc2C(=O)N1c1ccccc1/C=C/c1n[nH]c2ccccc12` [Compound 196, (E)-5-chloro-2-{2-[2-(1H-indazol-3-yl)vinyl]phenyl}isoindole-1,3-dione], the inhibition at 10 µM worked out at 99.8%.
On the same count and under the same terms, the same measure for `Cc1ccc2c(c1)C(=O)N(c1ccccc1/C=C/c1n[nH]c3ccccc13)C2=O` [Compound 197, (E)-2-{2-[2-(1H-indazol-3-yl)vinyl]phenyl}-5-methylisoindole-1,3-dione]: 101%; for `O=C1c2ccncc2C(=O)N1c1ccccc1/C=C/c1n[nH]c2ccccc12` [Compound 198, (E)-2-{2-[2-(1H-indazol-3-yl)vinyl]phenyl}pyrrolo[3,4-c]pyridine-1,3-dione hydrochloride]: 87.2%; for `O=C1c2cccc(F)c2C(=O)N1c1ccccc1/C=C/c1n[nH]c2ccccc12` [Compound 199, (E)-4-fluoro-2-{2-[2-(1H-indazol-3-yl)vinyl]phenyl}isoindole-1,3-dione]: 99.4%.
On the same count and under the same terms, the result for `O=C1c2cccc(O)c2C(=O)N1c1ccccc1/C=C/c1n[nH]c2ccccc12` [Compound 200, (E)-4-hydroxy-2-{2-[2-(1H-indazol-3-yl)vinyl]phenyl}isoindole-1,3-dione] reads 67.5%.
Consider `CCNc1ccc2c(c1)C(=O)N(c1ccccc1/C=C/c1n[nH]c3ccccc13)C2=O` [Compound 201, (E)-5-ethylamino-2-{2-[2-(1H-indazol-3-yl)vinyl]phenyl}isoindole-1,3-dione], for which the inhibition at 10 µM was 99.1%.
Consider `O=C1c2cc3ccccc3cc2C(=O)N1c1ccccc1/C=C/c1n[nH]c2ccccc12` [Compound 202, (E)-2-{2-[2-(1H-indazol-3-yl)vinyl]phenyl}benzo[f]isoindole-1,3-dione], for which the inhibition at 10 µM was found to be 85.9%.
Consider `O=C1C2=C(CCCC2)C(=O)N1c1ccccc1/C=C/c1n[nH]c2ccccc12` [Compound 203, (E)-2-{2-[2-(1H-indazol-3-yl)vinyl]phenyl}-4,5,6,7-tetrahydroisoindole-1,3-dione], for which the inhibition at 10 µM turned out to be 101%.
